Where “and” joins values, the source holds several entries; their conditions need not be identical. Equal values may be shown once.
Target: T1, canine TRPM8 (Canis lupus familiaris, UniProt Q1A7N1)
T1 construct: expressed in transfected cells
Experiment: In Vitro Canine TRPM8 Functional Assay (Ca2+-sensitive fluorescent dye, icilin activation, FLIPR/FDSS)
Assay type: cell-based
Conditions: HEK293 cells stably expressing canine TRPM8, icilin activation; for IC50: eight-point dose-response; for % I (1 μM): compound at 1 μM; for % I (0.5 μM): compound at 0.5 μM
Experimental: The functional activity of compounds of Formula (I) was determined by measuring changes in intracellular calcium concentration using a Ca^2+-sensitive fluorescent dye. The changes in fluorescent signal were monitored by a fluorescence plate reader, either a FLIPR™ (Molecular Devices) or FDSS (Hamamatsu).
HEK293 cells stably expressing canine TRPM8 were routinely grown as monolayers in Dulbecco's minimum essential medium supplemented with 10% FBS, 1 mM L-glutamine, 100 units/mL penicillin, 100 ug/mL streptomycin and 400 μg/mL G418. Cells were maintained in 5% CO2 at 37° C. At 24 hrs prior to assay, cells were seeded in clear-base poly-D-lysine coated 384-well plates (BD Biosciences, NJ, USA) at a density of 5,000 cells per well in culture medium and grown overnight in 5% CO2 at 37° C. On assay day, growth media was removed and cells were loaded with Calcium 3 Dye (Molecular Devices) for 35 min at 37° C., under 5% CO2 and then for 25 min at room temperature and atmosphere. Subsequently, cells were tested for agonist-induced increases in intracellular Ca^2+ levels using FLIPR™ or FDSS. Cells were challenged with a compound of Formula (I) (at varying concentrations) and intracellular Ca^2+ was measured for 5 min prior to the addition of icilin to all wells to achieve a final concentration which produces approximately an 80% maximal response.
Basal FI was subtracted prior to normalizing data to percent of maximal response. Curves were generated using the average of quadruplicate wells for each data point, were analyzed using nonlinear regression of either sigmoidal dose response or sigmoidal dose response (variable slope). Finally, the EC50 and IC50 values were calculated with the best-fit dose curve determined by GraphPad Prism.

T1 sequence (Q1A7N1 1-1104): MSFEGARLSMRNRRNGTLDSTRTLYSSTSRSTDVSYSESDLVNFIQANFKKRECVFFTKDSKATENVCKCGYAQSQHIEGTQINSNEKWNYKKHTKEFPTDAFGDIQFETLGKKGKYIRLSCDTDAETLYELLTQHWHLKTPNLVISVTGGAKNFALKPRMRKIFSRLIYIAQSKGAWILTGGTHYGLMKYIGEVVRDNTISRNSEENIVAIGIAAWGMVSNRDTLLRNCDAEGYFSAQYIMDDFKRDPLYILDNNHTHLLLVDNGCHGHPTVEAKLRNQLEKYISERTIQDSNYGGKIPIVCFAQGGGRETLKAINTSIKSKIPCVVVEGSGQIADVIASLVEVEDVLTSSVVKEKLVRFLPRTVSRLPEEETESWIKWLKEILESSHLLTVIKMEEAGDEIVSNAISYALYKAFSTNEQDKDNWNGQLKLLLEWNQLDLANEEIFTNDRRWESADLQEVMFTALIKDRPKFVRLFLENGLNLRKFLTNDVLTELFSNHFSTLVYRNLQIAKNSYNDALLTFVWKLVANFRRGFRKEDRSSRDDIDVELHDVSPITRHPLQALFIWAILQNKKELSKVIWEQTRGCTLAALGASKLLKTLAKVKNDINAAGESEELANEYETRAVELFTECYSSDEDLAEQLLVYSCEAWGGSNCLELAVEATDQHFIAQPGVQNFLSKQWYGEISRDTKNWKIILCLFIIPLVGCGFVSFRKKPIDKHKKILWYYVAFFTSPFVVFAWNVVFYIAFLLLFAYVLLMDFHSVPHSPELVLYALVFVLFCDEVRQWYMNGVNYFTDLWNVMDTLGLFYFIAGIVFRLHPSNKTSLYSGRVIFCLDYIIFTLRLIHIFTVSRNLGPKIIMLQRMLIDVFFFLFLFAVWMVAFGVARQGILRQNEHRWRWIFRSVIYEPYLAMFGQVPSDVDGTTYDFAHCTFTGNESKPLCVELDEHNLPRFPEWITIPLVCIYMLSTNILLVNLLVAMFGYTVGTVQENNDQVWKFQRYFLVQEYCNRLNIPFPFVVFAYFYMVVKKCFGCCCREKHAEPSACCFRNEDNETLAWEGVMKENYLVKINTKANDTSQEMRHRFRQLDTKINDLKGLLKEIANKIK

| Compound | IC50 | % I (1 μM) | % I (5 μM) (compound at 5 μM) [%] | % I (0.5 μM) |
| --- | --- | --- | --- | --- |
| CCOP(=O)(OCC)C(Cc1cccc(F)c1F)c1sc2ccccc2c1C (racemic) [Cpd 10] | 43 nM | 100% | – | – |
| Cc1c(C(Cc2ccc(F)c(F)c2)P(=O)(OC(C)C)OC(C)C)oc2ccccc12 (racemic) [Cpd 11] | 43 nM and 47 nM | 99% and 103% | – | – |
| CC(C)OP(=O)(OC(C)C)C(Cc1ccc(F)c(F)c1)c1sc2ccccc2c1C(C)C (racemic) [Cpd 19] | 68 nM | 100% | – | – |
| CCOP(=O)(OCC)C(Cc1cccc(Cl)c1F)c1sc2ccccc2c1C (racemic) [Cpd 23] | 96 nM | 100% | – | – |
| CCOP(=O)(OCC)C(Cc1ccccc1C)c1sc2ccccc2c1C (racemic) [Cpd 26] | 108 nM | 100% | – | – |
| CCOP(=O)(OCC)C(Cc1ccc(F)cc1Cl)c1sc2ccccc2c1C (racemic) [Cpd 27] | 110 nM | 99% | – | – |
| CCOP(=O)(OCC)C(Cc1cc(F)cc(F)c1Cl)c1sc2ccccc2c1C (racemic) [Cpd 28] | 110 nM | 100% | – | – |
| CCOP(=O)(OCC)C(Cc1cccc(Cl)c1Cl)c1sc2ccccc2c1C (racemic) [Cpd 35] | 125 nM | 100% | – | – |
| CCOP(=O)(OCC)C(Cc1cccc(C(F)(F)F)c1F)c1sc2ccccc2c1C (racemic) [Cpd 37] | 127 nM | 100% | – | – |
| CC(C)OP(=O)(OC(C)C)C(Cc1ccc(F)c(F)c1)c1sc2ccccc2c1C1CCCC1 (racemic) [Cpd 38] | 140 nM | 99% | – | – |
| CCOP(=O)(OCC)C(Cc1cccc(C(F)(F)F)c1)c1cc2ccccc2s1 (racemic) [Cpd 39] | 141 nM | 100% | – | – |
| CCOP(=O)(OCC)C(Cc1ccc2ccccc2c1)c1sc2ccccc2c1C (racemic) [Cpd 46] | 167 nM | 99% | – | – |
| CCOP(=O)(OCC)C(Cc1cc(Cl)ccc1Cl)c1sc2ccccc2c1C (racemic) [Cpd 47] | 167 nM | 100% | – | – |
| CCOP(=O)(OCC)C(Cc1ccccc1Cl)c1sc2ccccc2c1C (racemic) [Cpd 48] | 169 nM | 100% | – | – |
| CCOP(=O)(OCC)C(Cc1ccc(F)c(F)c1)c1sc2cccc(F)c2c1C (centres unmarked) [Cpd 3, [2-(3,4-Difluoro-phenyl)-1-(4-fluoro-3-methyl-benzo[b]-thiophene-2-yl)-ethyl]-phosphonic acid diethyl ester] | – | 100% | – | – |
| CCOP(=O)(OCC)C(Cc1ccc(F)c(F)c1)c1sc2c(F)cccc2c1C (centres unmarked) [Cpd 8, [2-(3,4-Difluoro-phenyl)-1-(7-fluoro-3-methyl-benzo[b-]thiophene-2-yl)-ethyl]-phosphonic acid diethyl ester] | – | 100% | – | – |
| CCOP(=O)(OCC)C(Cc1ccc(F)c(F)c1)c1oc2ccccc2c1C (centres unmarked) [Cpd 9, [2-(3,4-Difluoro-phenyl)-1-(3-methyl-benzofuran-2-yl)-ethyl]-phosphonic acid diethyl ester] | – | 100% | – | – |

| Compound | IC50 | % I (1 μM) | % I (5 μM) (compound at 5 μM) [%] | % I (0.5 μM) |
| --- | --- | --- | --- | --- |
| CCOP(=O)(OCC)C(Cc1ccc(F)c(F)c1)c1sc2cc(F)ccc2c1C (centres unmarked) [Cpd 16, [2-(3,4-Difluoro-phenyl)-1-(6-fluoro-3-methyl-benzo[b]-thiophene-2-yl)-ethyl]-phosphonic acid diethyl ester] | – | 100% | – | – |
| CCOP(=O)(OCC)C(Cc1ccc(Cl)c(Cl)c1)c1sc2ccccc2c1Br (centres unmarked) [Cpd 24, [1-(3-Bromo-benzo[b]thiophen-2-yl)-2-(3,4-dichloro-phenyl)-ethyl]-phosphonic acid diethyl ester] | – | 100% | – | – |
| CCOP(=O)(OCC)C(Cc1ccc(F)c(F)c1)c1sc2ccc(F)cc2c1C (centres unmarked) [Cpd 45, [2-(3,4-Difluoro-phenyl)-1-(5-fluoro-3-methyl-benzo[b]thiophene-2-yl)-ethyl]-phosphonic acid diethyl ester] | – | 100% | – | – |
| CCOP(=O)(OCC)C(Cc1ccc(F)c(F)c1)c1sc2cccc(Cl)c2c1C (centres unmarked) [Cpd 65, [1-(4-Chloro-3-methyl-benzo[b]thiophen-2-yl)-2-(3,4-difluoro-phenyl)-ethyl]-phosphonic acid diethyl ester] | – | 100% | – | – |
| CCOP(=O)(OCC)C(Cc1ccc(Cl)c(Cl)c1)c1cc2ccccc2s1 (centres unmarked) [Cpd 78, [1-Benzo[b]thiophen-2-yl-2-(3,4-dichloro-phenyl)-ethyl]-phosphonic acid diethyl ester] | – | 95% | – | – |
| CCOP(=O)(OCC)C(C)(Cc1ccc(F)c(F)c1)c1sc2ccccc2c1C (centres unmarked) [Cpd 79, [2-(3,4-Difluoro-phenyl)-1-methyl-1-(3-methyl-benzo[b]-thiophen-2-yl)-ethyl]-phosphonic acid diethyl ester] | – | 88% | – | – |
| CCOP(=O)(Cc1cc2ccccc2s1)OCc1c(Cl)cccc1Cl (centres unmarked) [Cpd 94, Benzo[b]thiophen-2-ylmethyl-phosphonic acid 2,6-dichloro-benzyl ester ethyl ester] | – | 79% | – | – |
| CCOP(=O)(Cc1cc2ccccc2s1)OCc1ccccc1C (centres unmarked) [Cpd 104, Benzo[b]thiophen-2-ylmethyl-phosphonic acid ethyl ester 2-methyl-benzyl ester] | – | 53% | – | – |
| CCOP(=O)(Cc1cc2ccccc2s1)OCc1ccccc1Cl (centres unmarked) [Cpd 105] | 1010 nM | 48% | 100 | – |
| CCOP(=O)(Cc1cc2ccccc2s1)OCc1ccccc1F (centres unmarked) [Cpd 109, Benzo[b]thiophen-2-ylmethyl-phosphonic acid ethyl ester 2-fluoro-benzyl ester] | – | 17% | – | – |
| CCOP(=O)(OCC)C(Cc1ccc(F)c(F)c1)c1sc2ncccc2c1Br (centres unmarked) [Cpd 132, 1-[(3-Bromo-thieno[2,3-b]pyridin-2-yl)-2-(3,4-difluoro-phenyl)-ethyl]-phosphonic acid diethyl ester] | – | 102% | – | – |
| CCOP(=O)(OCC)C(Cc1cccc(Cl)c1F)c1sc2ccccc2c1Br (centres unmarked) [Cpd 143] | 67 nM | – | – | 101% |
| CCOP(=O)(OCC)C(Cc1ccc(C(F)(F)F)c(F)c1)c1sc2ccccc2c1Br (centres unmarked) [Cpd 144] | 58 nM | – | – | 101% |
| CCOP(=O)(OCC)C(Cc1cccc(OC(F)(F)F)c1)c1sc2ccccc2c1Br (centres unmarked) [Cpd 145] | 119 nM and 116 nM | – | – | 103, % and 102% |
| CCOP(=O)(OCC)C(Cc1cc(C(F)(F)F)ccc1F)c1sc2ccccc2c1Br (centres unmarked) [Cpd 146] | 100 nM | – | – | 103% |
| CCOP(=O)(OCC)C(Cc1ccccc1Cl)c1sc2ccccc2c1Br (centres unmarked) [Cpd 147] | 125 nM | – | – | 103% |
| CCOP(=O)(OCC)C(Cc1cc(C(F)(F)F)ccc1Cl)c1sc2ccccc2c1Br (centres unmarked) [Cpd 148] | 172 nM | – | – | 103% |
